Measured values taken from US20160166688A9, “COMBINATION THERAPY OF AN AFUCOSYLATED CD20 ANTIBODY WITH BENDAMUSTINE” (Roche Glycart AG, priority 2009, published 2016).

Test system: human Z138 mantle cell lymphoma cell line
Experiment: Tumor growth inhibition study in vivo, Z138 xenograft
Set-up: species or system SCID beige mice
Settings: for TGI (%): tumor growth inhibition vs. control group on day 33 after tumor cell inoculation, antibodies 1 mg/kg once weekly; for Antitumor activity / tumor growth compared to control group (words): 3 mg/kg i.p., study days 19-22, end of study day 33
[1] = i.p., bendamustine 3 mg/kg days 19-22

## B-HH6-B-KV1 GE: Afucosylated glyco-engineered humanized B-Ly1 type II anti-CD20 IgG1 antibody; VH SEQ ID NO:7 (B-HH6), VL SEQ ID No. 20 (B-KV1)
[1]
  TGI (%): 47%

## Cn1c(CCCC(=O)O)nc2cc(N(CCCl)CCCl)ccc21 [Bendamustine, 4-[5-[Bis(2-chloroethyl)amino]-1-methylbenzimidazol-2-yl]buta-noic acid]
  Antitumor activity / tumor growth compared to control group (words): comparable tumor growth as the control group
Listed as bendamustine
  Antitumor activity / tumor growth compared to control group (words): did not show any antitumor activity
[1]
  TGI (%): 0%
vs. vehicle group 1, study end day 33, i.p., antibodies 1 mg/kg once weekly (days 19, 26), bendamustine 3 mg/kg days 19-22
  Parametric TCR based on sAUC: 0.9
